Entries after “also recorded” stand apart in the source; their conditions may differ.
Experiments:
Hap1 cells = assay: Hi-Culfite on Hap1 cells treated with 5-azacytidine (methylation inhibition experiment); type: cell-based; details: for CpG C->T conversion: DMSO control 37.66%
Description: (§1) Hi-Culfite library construction (FIG. 1A) followed the initial steps of an in situ Hi-C protocol (8). One million cells were crosslinked with formaldehyde; chromatin was digested with a restriction enzyme; and the overhangs were filled in, incorporating a biotinylated nucleotide to mark the fragment ends after ligation. The DNA was then purified and sheared. Next, Applicants performed bisulfite conversion, which converted unmethylated cytosine residues into uracil but left methylated cytosine residues intact. Applicants captured the resulting single-stranded, biotin-marked ligation products on streptavidin beads. Finally, Applicants added adapters to the 3′ end, synthesized the second strand by primer extension, ligated adapters to the 3′ end of the 2nd strand, and PCR amplified with indexed primers.
(§2) Cell Culture: All commercial cell lines were cultured following vendors' recommendations to about 80% confluency before they were harvested and cross-linked in fresh complete medium. For methylation inhibition experiments, cultures of GM12878 (Coriell Institute) and Hap1 (Horizon) were grown for 8 days in medium supplemented with DMSO without drug or with 1 μM or 5 μM 5-azacytidine (Sigma Aldrich) solubilized in DMSO, refreshing the medium/drug every two days.
(§3) Library Construction: Hi-C libraries were prepared using the protocol described (8) Briefly, one million cells were crosslinked with 1% formaldehyde for 10 minutes at room temperature and then quenched with 0.2 M glycine solution. Cells were lysed and nuclei permeabilized with 0.5% SDS for 10 minutes at 62° C. Chromatin was digested with 100 U of MboI restriction enzyme (NEB). Ends of the restriction fragments were filled-in and labeled with a biotinylated nucleotide and then ligated. Nuclei were pelleted, proteins were digested with proteinase K, and crosslinks were reversed by heating at 68° C. overnight. DNA was sheared in a Covaris focused ultrasonicator to a length of 300-500 bp. Size-selected DNA was split for processing with two workflows—10% of the material was used for preparation of a regular Hi-C library (unconverted control) and 90% of the DNA was used for Hi-Culfite library construction. Hi-C libraries were finished by enriching for biotinylated ligation junctions through binding to T1 streptavidin beads (Thermo Fisher) and preparing the library for Illumina sequencing performing the end-repair, A-tailing and adapter ligation steps with DNA attached to the beads. Libraries were amplified directly off the beads and purified for subsequent Illumina sequencing.
DNA for Hi-Culfite was first treated with sodium bisulfite using EpiTect Fast bisulfite conversion kit (Qiagen) following the kit's instructions and extending each of the two 60° C. conversion incubations to 20 minutes. Converted DNA was purified without addition of an RNA carrier to the binding buffer. Biotinylated ligation junctions in purified bisulfite-converted DNA were captured on 15 μl C1 streptavidin beads (Thermo Fisher) in denaturing binding buffer (10 mM Tris pH 7.5; 5 mM EDTA; 500 mM LiCl; 0.5% Igepal CA630; 0.2% SDS; 4 M Urea) for 10 minutes at 55° C. DNA was washed twice with binding buffer at 55° C. and once with 10 mM Tris. […]
Methylation Track Generation with MethylDackel: Duplicate Hi-C contacts were marked as duplicates in the methylation BAM. Applicants then called the program Methyl Dackel extract with the flag “-F 1024”; this ignored duplicates reads but kept all other mapped reads with MAPQ ≥10. […]

GM12878 cells = assay: Hi-Culfite on GM12878 cells treated with 5-azacytidine (methylation inhibition experiment); type: cell-based, human; details: for CpG C->T conversion: DMSO control 45.37%
Description: as §1, §2, §3
DNA for Hi-Culfite was first treated with sodium bisulfite using EpiTect Fast bisulfite conversion kit (Qiagen) following the kit's instructions and extending each of the two 60° C. conversion incubations to 20 minutes. Converted DNA was purified without addition of an RNA carrier to the binding buffer. Biotinylated ligation junctions in purified bisulfite-converted DNA were captured on 15 μl C1 streptavidin beads (Thermo Fisher) in denaturing binding buffer (10 mM Tris pH 7.5; 5 mM EDTA; 500 mM LiCl; 0.5% Igepal CA630; 0.2% SDS; 4 M Urea) for 10 minutes at 55° C. DNA was washed twice with binding buffer at 55° C. and once with 10 mM Tris. Beads were resuspended in 15 μl of 10 mM Tris, and libraries were detached from the beads by heating for 5 minutes at 95° C. After separating on a magnet, library construction for Illumina sequencing was performed on the supernatant containing ssDNA library using Accel-NGS Methyl-Seq kit (Swift Biosciences) following the kit's manual.
Methylation Track Generation with MethylDackel: Duplicate Hi-C contacts were marked as duplicates in the methylation BAM. Applicants then called the program Methyl Dackel extract with the flag “-F 1024”; this ignored duplicates reads but kept all other mapped reads with MAPQ ≥10. MethylDackel generated CpG methylation tracks, a cytosine coverage report, and an input file for the analysis program MethylKit26. […]

## Nc1ncn([C@@H]2O[C@H](CO)[C@@H](O)[C@H]2O)c(=O)n1 [5-azacytidine]
Hap1 cells; Hap1, 1 uM and 5 uM, 8 days, vs DMSO
  impact on nuclear architecture / chromosome-level nuclear organization (contact maps, eigenvectors): did not discern an impact on nuclear architecture; also recorded: no effect on chromosome-level nuclear organization
Hap1 cells; Hap-1, 1 μM 5-azacytidine in DMSO, 8 days
  CpG C->T conversion: 86.16%
Hap1 cells; Hap-1, 5 μM 5-azacytidine in DMSO, 8 days
  CpG C->T conversion: 85.79%
Hap1 cells; HapI treated with 5-azacytidine, average stated jointly for GM12878 and HapI
  genome-wide decline of methylation (on average): 2 fold
Hap1 cells; HapI, increasing 5-azacytidine concentration
  looping signal by Aggregate Peak Analysis: no significant changes in looping signal
GM12878 cells; GM12878, 1 μM 5-azacytidine in DMSO, 8 days
  CpG C->T conversion: 69.46%
GM12878 cells; GM12878, 1 uM and 5 uM, 8 days, vs DMSO
  impact on nuclear architecture / chromosome-level nuclear organization (contact maps, eigenvectors): did not discern an impact on nuclear architecture; also recorded: no effect on chromosome-level nuclear organization
GM12878 cells; GM12878, 5 μM 5-azacytidine in DMSO, 8 days
  CpG C->T conversion: 75.08%
GM12878 cells; GM12878, increasing 5-azacytidine concentration
  looping signal by Aggregate Peak Analysis: no significant changes in looping signal
GM12878 cells; GM12878 treated with 5-azacytidine, average stated jointly for GM12878 and HapI
  genome-wide decline of methylation (on average): 2 fold
GM12878 cells; increasing concentration of 5-azacytidine, GM12878 CTCF motifs
  nucleosome occupancy and directional methylation asymmetry at CTCF motifs (aggregate methylation analysis): no changes to nucleosome occupancy and directional methylation asymmetry
